Patent US7378446B2, “Compound having anti-HCV activity and process for producing the same” (Chugai Seiyaku Kabushiki Kaisha, priority 2003, dated 2008)

Legend:
in vitro = format: cell-based; settings: human; replicon cells, 3 days culture with compound, Cell Counting Kit 8, absorbance 450 nm; read-out: Cytotoxicity CC50
Description: (§1) A construct was prepared in which a luciferase gene derived from firefly was introduced as a reporter gene in HCV-RNA to assay the number of copies of HCV-RNA. The luciferase gene was introduced in the form of fusing with neomycin-resistance gene directly below the IRES (Internal Ribosome Entry Site) of the HCV gene in accordance with the method of Krieger, et al. (J. Virol. 75:4614). After synthesizing this RNA in vitro, it was introduced into Huh7 cell by electroporation and isolated as G418-resistant clone. Firefly luciferase HCV replicon cells (3-1) were suspended in Dulbecco's MEM (Gibco cat. no. 10569-010) containing 5% fetal bovine serum (Hyclone cat. no. SH30071.03), inoculated into the wells of a 96-well plate at 5000 cells/well and then cultured overnight at 37° C. and 5% CO2. Approximately 20 hours later, the diluted test compound was added at 10 μl per well followed by culturing for another 3 days. Two series of assay plates were prepared, and the assay was carried out using a white plate for one series and a clear plate for the other series. Following completion of culturing, the white plate was used for the Steady-Glo Luciferase Assay System (Promega cat. no. E2520). Namely, after adding 100 μl of reagent per well, mixing by a pipette 3 to 4 times and then allowing to stand for 5 minutes, luminescence was measured with the 1450 MicroBeta TRILUX (Wallac). Values obtained in the absence of cell addition were used as background values and subtracted from all values to calculate the IC50 (50% inhibitory concentration) of the drug based on a value of 0% inhibition for the value in the absence of addition of test compound.
The Cell Counting Kit 8 (Dojindo cat. no. CK04) was used to determine the cytotoxicity. Namely, 10 μl of Cell Counting Kit 8 were added to a clear plate and incubated for 30 to 60 minutes at 37° C. Absorbance at a wavelength of 450 nm and a control wavelength of 630 nm was measured with a 96-well plate reader. Values in the absence of cell addition were used as background values and subtracted from all values to calculate the CC50 (50% cell inhibitory concentration) of the drug based on a value of 0% inhibition for the value in the absence of addition of drug.

[1] = test system: Firefly luciferase HCV replicon cells (3-1); test: Replicon assay (firefly luciferase HCV replicon); format: cell-based; settings: Hepatitis C virus, 72 h; Huh7-derived luciferase HCV replicon cells, 3 days culture with compound, Steady-Glo luminescence
Description: as §1

| SMILES | CC50 (in vitro) | IC50 [1] |
| --- | --- | --- |
| CCCCCCCC(=O)CCCCCC/C=C/[C@H](C(=O)N[C@@H](Cc1ccc(Oc2cccc(C)c2)cc1)C(=O)O)[C@@](O)(CC(=O)O)C(=O)O [Compound 56] | > 1000 nM | 6 nM |
| CCCCCCCC(=O)CCCCCC/C=C/[C@H](C(=O)N[C@@H](Cc1ccc(Oc2cccc(C(F)(F)F)c2)cc1)C(=O)O)[C@@](O)(CC(=O)O)C(=O)O [Compound 57] | > 1000 nM | 11 nM |
| CCCCCCCC(=O)CCCCCC/C=C/[C@H](C(=O)N[C@@H](Cc1ccc(-c2ccc(OC)cc2)cc1)C(=O)O)[C@@](O)(CC(=O)O)C(=O)O [Compound 58] | > 1000 nM | 4 nM |
| CCCCCCCC(=O)CCCCCC/C=C/[C@H](C(=O)N[C@@H](Cc1ccc(-c2ccc(C)cc2)cc1)C(=O)O)[C@@](O)(CC(=O)O)C(=O)O [Compound 59] | > 1000 nM | 3 nM |
| CCCCCCCC(=O)CCCCCC/C=C/[C@H](C(=O)N[C@@H](Cc1ccc(-c2ccc(C(F)(F)F)cc2)cc1)C(=O)O)[C@@](O)(CC(=O)O)C(=O)O [Compound 60] | > 1000 nM | 8 nM |
| CCCCCCCC(=O)CCCCCC/C=C/[C@H](C(=O)N[C@@H](Cc1ccc(-c2cccc(C)c2)cc1)C(=O)O)[C@@](O)(CC(=O)O)C(=O)O [Compound 61] | > 1000 nM | 6 nM |
| CCCCCCCC(=O)CCCCCC/C=C/[C@H](C(=O)N[C@@H](Cc1ccc(-c2cccc(OC)c2)cc1)C(=O)O)[C@@](O)(CC(=O)O)C(=O)O [Compound 62] | > 1000 nM | 2 nM |
| CCCCCCCC(=O)CCCCCC/C=C/[C@H](C(=O)N[C@@H](Cc1ccc(-c2cccc(C(F)(F)F)c2)cc1)C(=O)O)[C@@](O)(CC(=O)O)C(=O)O [Compound 63] | > 1000 nM | 10 nM |
| CCCCCCCC(=O)CCCCCC/C=C/[C@H](C(=O)N[C@@H](Cc1ccc(Oc2cccc(F)c2)cc1)C(=O)O)[C@@](O)(CC(=O)O)C(=O)O [Compound 64] | > 1000 nM | 7 nM |
| CCCCCCCC(=O)CCCCCC/C=C/[C@H](C(=O)N[C@@H](Cc1ccc(-c2ccccc2F)cc1)C(=O)O)[C@@](O)(CC(=O)O)C(=O)O [Compound 65] | > 1000 nM | 2 nM |
| CCCCCCCC(=O)CCCCCC/C=C/[C@H](C(=O)N[C@@H](Cc1ccc(-c2cccc(F)c2)cc1)C(=O)O)[C@@](O)(CC(=O)O)C(=O)O [Compound 66] | > 1000 nM | 6 nM |
| CCCCCCCC(=O)CCCCCC/C=C/[C@H](C(=O)N[C@@H](Cc1ccc(Oc2ccc(N(C)C)cc2)cc1)C(=O)O)[C@@](O)(CC(=O)O)C(=O)O [Compound 67] | > 1000 nM | 4 nM |
| CCCCCCCC(=O)CCCCCC/C=C/[C@H](C(=O)N[C@@H](Cc1ccc(-c2ccc(N(C)C)cc2)cc1)C(=O)O)[C@@](O)(CC(=O)O)C(=O)O [Compound 68] | > 1000 nM | 2 nM |
| CCCCCCCC(=O)CCCCCC/C=C/[C@H](C(=O)N[C@@H](Cc1ccc(Nc2ccccc2)cc1)C(=O)O)[C@@](O)(CC(=O)O)C(=O)O [Compound 69] | > 1000 nM | 2 nM |
| CCCCCCCC(=O)CCCCCC/C=C/[C@H](C(=O)N[C@@H](Cc1ccc(Oc2ccc(C#N)cc2)cc1)C(=O)O)[C@@](O)(CC(=O)O)C(=O)O [Compound 70] | > 1000 nM | 11 nM |
| CCCCCCCC(=O)CCCCCC/C=C/[C@H](C(=O)N[C@@H](Cc1ccc(-c2ccc(C#N)cc2)cc1)C(=O)O)[C@@](O)(CC(=O)O)C(=O)O [Compound 71] | > 1000 nM | 4 nM |
| CCCCCCCC(=O)CCCCCC/C=C/[C@H](C(=O)N[C@@H](Cc1ccc(N2CCOCC2)cc1)C(=O)O)[C@@](O)(CC(=O)O)C(=O)O [Compound 72] | > 1000 nM | 6 nM |
| CCCCCCCC(=O)CCCCCC/C=C/[C@H](C(=O)N[C@@H](Cc1ccc(-c2ccc(OC)nc2)cc1)C(=O)O)[C@@](O)(CC(=O)O)C(=O)O [Compound 73] | > 1000 nM | 2 nM |
| CCCCCCCC(=O)CCCCCC/C=C/[C@H](C(=O)N[C@@H](Cc1ccc(-c2ccc(S(=O)(=O)N(C)C)cc2)cc1)C(=O)O)[C@@](O)(CC(=O)O)C(=O)O [Compound 74] | > 1000 nM | 135 nM |
| CCCCCCCC(=O)CCCCCC/C=C/[C@H](C(=O)N[C@@H](Cc1ccc(N(C)c2ccccc2)cc1)C(=O)O)[C@@](O)(CC(=O)O)C(=O)O [Compound 75] | > 1000 nM | 6 nM |

| SMILES | CC50 (in vitro) | IC50 [1] |
| --- | --- | --- |
| CCCCCCCC(=O)CCCCCC/C=C/[C@H](C(=O)N[C@@H](Cc1ccc(-c2cncnc2)cc1)C(=O)O)[C@@](O)(CC(=O)O)C(=O)O [Compound 76] | > 1000 nM | 13 nM |
| CCCCCCCC(=O)CCCCCC/C=C/[C@H](C(=O)N[C@@H](Cc1ccc(-c2ccc(SC)cc2)cc1)C(=O)O)[C@@](O)(CC(=O)O)C(=O)O [Compound 77] | > 1000 nM | 7 nM |
| CCCCCCCC(=O)CCCCCC/C=C/[C@H](C(=O)N[C@@H](Cc1ccc(-c2cncc(OC)c2)cc1)C(=O)O)[C@@](O)(CC(=O)O)C(=O)O [Compound 78] | > 1000 nM | 3 nM |
| CCCCCCCC(=O)CCCCCC/C=C/[C@H](C(=O)N[C@@H](Cc1ccc(-c2c(C)noc2C)cc1)C(=O)O)[C@@](O)(CC(=O)O)C(=O)O [Compound 79] | > 1000 nM | 104 nM |
| CCCCCCCC(=O)CCCCCC/C=C/[C@H](C(=O)N[C@@H](Cc1ccc(-c2ccc(S(C)(=O)=O)cc2)cc1)C(=O)O)[C@@](O)(CC(=O)O)C(=O)O [Compound 80] | > 1000 nM | 71 nM |
| CCCCCCCC(=O)CCCCCC/C=C/[C@H](C(=O)N[C@@H](Cc1ccc(-c2cnc(OC)nc2)cc1)C(=O)O)[C@@](O)(CC(=O)O)C(=O)O [Compound 81] | > 1000 nM | 8 nM |
| CCCCCCCC(=O)CCCCCC/C=C/[C@H](C(=O)N[C@@H](Cc1ccc(OCCCN)cc1)C(=O)O)[C@@](O)(CC(=O)O)C(=O)O [Compound 82] | > 1000 nM | 39 nM |
| CCCCCCCC(=O)CCCCCC/C=C/[C@H](C(=O)N[C@@H](Cc1ccc(OC2CCN(C)CC2)cc1)C(=O)O)[C@@](O)(CC(=O)O)C(=O)O [Compound 83] | > 1000 nM | 108 nM |
| CCCCCCCC(=O)CCCCCC/C=C/[C@H](C(=O)N[C@@H](Cc1ccc(OCCCN(C)C)cc1)C(=O)O)[C@@](O)(CC(=O)O)C(=O)O [Compound 84] | > 1000 nM | 43 nM |
| CCCCCCCC(=O)CCCCCC/C=C/[C@H](C(=O)N[C@@H](Cc1ccc(OCc2cccnc2)cc1)C(=O)O)[C@@](O)(CC(=O)O)C(=O)O [Compound 85] | > 1000 nM | 1 nM |
| CCCCCCCC(=O)CCCCCC/C=C/[C@H](C(=O)N[C@@H](Cc1ccc(OCCN2CCOCC2)cc1)C(=O)O)[C@@](O)(CC(=O)O)C(=O)O [Compound 86] | > 1000 nM | 7 nM |
| CCCCCCCC(=O)CCCCCC/C=C/[C@H](C(=O)N[C@@H](Cc1ccc(OCCN2CCNCC2)cc1)C(=O)O)[C@@](O)(CC(=O)O)C(=O)O [Compound 87] | > 1000 nM | 38 nM |
| CCCCCCCC(=O)CCCCCC/C=C/[C@H](C(=O)N[C@@H](Cc1ccc(OCCCNCc2cccnc2)cc1)C(=O)O)[C@@](O)(CC(=O)O)C(=O)O [Compound 88] | > 1000 nM | 18 nM |
| CCCCCCCC(=O)CCCCCC/C=C/[C@H](C(=O)N[C@@H](Cc1ccc(OCCCN2CCN(C)CC2)cc1)C(=O)O)[C@@](O)(CC(=O)O)C(=O)O [Compound 89] | > 1000 nM | 29 nM |
| CCCCCCCC(=O)CCCCCC/C=C/[C@H](C(=O)N[C@@H](Cc1ccc(N=[N+]=[N-])cc1)C(=O)O)[C@@](O)(CC(=O)O)C(=O)O [Compound 90] | > 1000 nM | 6 nM |
| CCCCCCCC(=O)CCCCCC/C=C/[C@H](C(=O)N[C@@H](Cc1ccc(CNC(=O)OCC2c3ccccc3-c3ccccc32)cc1)C(=O)O)[C@@](O)(CC(=O)O)C(=O)O [Compound 91] | > 1000 nM | 8 nM |
| CCCCCCCC(=O)CCCCCC/C=C/[C@H](C(=O)N[C@@H](Cc1ccc(NS(C)(=O)=O)cc1)C(=O)O)[C@@](O)(CC(=O)O)C(=O)O [Compound 92] | > 1000 nM | 2 nM |
| CCCCCCCC(=O)CCCCCC/C=C/[C@H](C(=O)N[C@@H](Cc1ccc(NC(C)=O)cc1)C(=O)O)[C@@](O)(CC(=O)O)C(=O)O [Compound 93] | > 1000 nM | 12 nM |
| CCCCCCCC(=O)CCCCCC/C=C/[C@H](C(=O)N[C@@H](Cc1ccc(CN)cc1)C(=O)O)[C@@](O)(CC(=O)O)C(=O)O [Compound 94] | > 1000 nM | 280 nM |
| CCCCCCCC(=O)CCCCCC/C=C/[C@H](C(=O)N[C@@H](Cc1ccc(NC(=N)N)cc1)C(=O)O)[C@@](O)(CC(=O)O)C(=O)O [Compound 95] | > 1000 nM | 395 nM |
